Reference: patent US7332568B2, “Q3 SPARC deletion mutant and uses thereof” (Abraxis BioScience, Inc., priority 2005, dated 2008)

Tested on: gp60-mediated caveolar transcytosis
Assay: Inhibition of transport of paclitaxel from ABX across endothelial monolayers
Type: cell-based, human
Description: Transport was dependent on albumin.

| Molecule | effect on transport of paclitaxel from ABX across endothelial monolayers |
| --- | --- |
| β-methyl cyclodextrin [BMC] | inhibited |
| CCN1C(=O)C=CC1=O [NEM] | inhibited |
